Earlier results on 1 compound are cited in patent publication US20240325295A1, “AQUEOUS BUMETANIDE-CONTAINING LIQUID” (DriPel B.V., priority 2021, published 2024).

SMILES strings stand for the structures. In brackets after ≈: the same amount, converted by molar mass.

For data set [1] the following is noted: at 25° C.
For data set [2] the following is noted: at 4° C.

Take `CCCCNc1cc(C(=O)O)cc(S(N)(=O)=O)c1Oc1ccccc1` [Bumetanide]: in data set [1], the water solubility is 0.026 mg/mL (≈ 0.0713 mM). In addition, in data set [2] (glycofurol), the solubility in glycofurol was 167 mg/mL (≈ 458 mM). Besides, the “solubility in polyethylene glycol 200” value in data set [2] (polyethylene glycol 200) is given as 143 mg/mL (≈ 392 mM).
